Measured values taken from ChEMBL document CHEMBL2413072, “Synthesis and in vitro anticancer studies of novel C-2 arylidene congeners of lantadenes” (2013).

Assays:
Assay type in all cases: functional
SF-539 [1] = assay: Growth inhibition of human SF539 cells assessed as cell growth at 10 uM by sulforhodamine B assay; conditions: read-out: Activity
PC-3 [2] = assay: Growth inhibition of human PC3 cells assessed as growth inhibition at 10 uM by sulforhodamine B assay; conditions: read-out: GI
BT-549 = assay: Growth inhibition of human BT549 cells assessed as growth inhibition at 10 uM by sulforhodamine B assay; conditions: read-out: GI
[3] = Growth inhibition of human Hs 578T cells assessed as cell growth at 10 uM by sulforhodamine B assay; conditions: read-out: Activity
U-251 = assay: Growth inhibition of human U251 cells assessed as growth inhibition at 10 uM by sulforhodamine B assay; conditions: read-out: GI
HOP-62 = assay: Growth inhibition of human HOP62 cells assessed as growth inhibition at 10 uM by sulforhodamine B assay; conditions: read-out: GI
[4] = Growth inhibition of human HCC2998 cells assessed as growth inhibition at 10 uM by sulforhodamine B assay; conditions: HCC 2998, read-out: GI
PC-3 [5] = assay: Growth inhibition of human PC3 cells assessed as cell growth at 10 uM by sulforhodamine B assay; conditions: read-out: Activity
A549 [6] = assay: Growth inhibition of human A549/ATCC cells assessed as cell growth at 10 uM by sulforhodamine B assay; conditions: read-out: Activity
[7] = Growth inhibition of human NCI-ADR-RES cells assessed as cell growth at 10 uM by sulforhodamine B assay; conditions: read-out: Activity
DU-145 = assay: Growth inhibition of human DU145 cells assessed as cell growth at 10 uM by sulforhodamine B assay; conditions: read-out: Activity
RPMI-8226 = assay: Growth inhibition of human RPMI8226 cells assessed as cell growth at 10 uM by sulforhodamine B assay; conditions: read-out: Activity
SF-268 = assay: Growth inhibition of human SF268 cells assessed as cell growth at 10 uM by sulforhodamine B assay; conditions: read-out: Activity
SK-MEL-2 = assay: Growth inhibition of human SK-MEL-2 cells assessed as growth inhibition at 10 uM by sulforhodamine B assay; conditions: read-out: GI
HT-29 = assay: Growth inhibition of human HT-29 cells assessed as growth inhibition at 10 uM by sulforhodamine B assay; conditions: read-out: GI
SNB-75 = assay: Growth inhibition of human SNB75 cells assessed as growth inhibition at 10 uM by sulforhodamine B assay; conditions: read-out: GI
TK-10 = assay: Growth inhibition of human TK10 cells assessed as cell growth at 10 uM by sulforhodamine B assay; conditions: read-out: Activity
UACC-257 = assay: Growth inhibition of human UACC257 cells assessed as growth inhibition at 10 uM by sulforhodamine B assay; conditions: read-out: GI
UO-31 = assay: Growth inhibition of human UO31 cells assessed as cell growth at 10 uM by sulforhodamine B assay; conditions: read-out: Activity
SK-MEL-5 [8] = assay: Growth inhibition of human SK-MEL-5 cells assessed as cell growth at 10 uM by sulforhodamine B assay; conditions: read-out: Activity
Malme-3M [9] = assay: Growth inhibition of human MALME-3M cells assessed as growth inhibition at 10 uM by sulforhodamine B assay; conditions: read-out: GI
SN12C = assay: Growth inhibition of human SN12C cells assessed as cell growth at 10 uM by sulforhodamine B assay; conditions: read-out: Activity
SR = assay: Growth inhibition of human SR cells assessed as growth inhibition at 10 uM by sulforhodamine B assay; conditions: read-out: GI
HOP-92 [10] = assay: Growth inhibition of human HOP92 cells assessed as cell growth at 10 uM by sulforhodamine B assay; conditions: read-out: Activity
SNB-19 = assay: Growth inhibition of human SNB19 cells assessed as growth inhibition at 10 uM by sulforhodamine B assay; conditions: read-out: GI
HOP-92 [11] = assay: Growth inhibition of human HOP92 cells assessed as growth inhibition at 10 uM by sulforhodamine B assay; conditions: read-out: GI
MDA-MB-231 [12] = assay: Growth inhibition of human MDA-MB-231 cells assessed as cell growth at 10 uM by sulforhodamine B assay; conditions: read-out: Activity
A549 [13] = assay: Growth inhibition of human A549/ATCC cells assessed as growth inhibition at 10 uM by sulforhodamine B assay; conditions: read-out: GI
OVCAR-8 = assay: Growth inhibition of human OVCAR8 cells assessed as cell growth at 10 uM by sulforhodamine B assay; conditions: read-out: Activity
[14] = Growth inhibition of human EKVX cells assessed as cell growth at 10 uM by sulforhodamine B assay; conditions: read-out: Activity
SK-OV-3 = assay: Growth inhibition of human SKOV3 cells assessed as cell growth at 10 uM by sulforhodamine B assay; conditions: read-out: Activity
OVCAR-4 [15] = assay: Growth inhibition of human OVCAR4 cells assessed as cell growth at 10 uM by sulforhodamine B assay; conditions: read-out: Activity
T47D = assay: Growth inhibition of human T47D cells assessed as growth inhibition at 10 uM by sulforhodamine B assay; conditions: read-out: GI
Malme-3M [16] = assay: Growth inhibition of human MALME-3M cells assessed as cell growth at 10 uM by sulforhodamine B assay; conditions: read-out: Activity
K562 [17] = assay: Growth inhibition of human K562 cells assessed as growth inhibition at 10 uM by sulforhodamine B assay; conditions: read-out: GI
SW-620 [18] = assay: Growth inhibition of human SW620 cells assessed as growth inhibition at 10 uM by sulforhodamine B assay; conditions: read-out: GI
NCI-H522 = assay: Growth inhibition of human NCI-H522 cells assessed as growth inhibition at 10 uM by sulforhodamine B assay; conditions: read-out: GI
COLO 205 = assay: Growth inhibition of human COLO205 cells assessed as cell growth at 10 uM by sulforhodamine B assay; conditions: read-out: Activity
KM12 [19] = assay: Growth inhibition of human KM12 cells assessed as growth inhibition at 10 uM by sulforhodamine B assay; conditions: read-out: GI
KM12 [20] = assay: Growth inhibition of human KM12 cells assessed as cell growth at 10 uM by sulforhodamine B assay; conditions: read-out: Activity
OVCAR-4 [21] = assay: Growth inhibition of human OVCAR4 cells assessed as growth inhibition at 10 uM by sulforhodamine B assay; conditions: read-out: GI
SK-MEL-5 [22] = assay: Growth inhibition of human SK-MEL-5 cells assessed as growth inhibition at 10 uM by sulforhodamine B assay; conditions: read-out: GI
SF-539 [23] = assay: Growth inhibition of human SF539 cells assessed as growth inhibition at 10 uM by sulforhodamine B assay; conditions: read-out: GI
IGROV-1 = assay: Growth inhibition of human IGROV1 cells assessed as cell growth at 10 uM by sulforhodamine B assay; conditions: read-out: Activity
CAKI-1 [24] = assay: Growth inhibition of human CAKI-1 cells assessed as growth inhibition at 10 uM by sulforhodamine B assay; conditions: read-out: GI
CAKI-1 [25] = assay: Growth inhibition of human CAKI-1 cells assessed as cell growth at 10 uM by sulforhodamine B assay; conditions: read-out: Activity
MDA-MB-231 [26] = assay: Growth inhibition of human MDA-MB-231 cells assessed as growth inhibition at 10 uM by sulforhodamine B assay; conditions: read-out: GI
SW-620 [27] = assay: Growth inhibition of human SW620 cells assessed as cell growth at 10 uM by sulforhodamine B assay; conditions: read-out: Activity
MCF7 = assay: Growth inhibition of human MCF7 cells assessed as growth inhibition at 10 uM by sulforhodamine B assay; conditions: read-out: GI
K562 [28] = assay: Growth inhibition of human K562 cells assessed as cell growth at 10 uM by sulforhodamine B assay; conditions: read-out: Activity

In the case of `CC1(C)C[C@@H](O)[C@]2(C(=O)O)CC[C@]3(C)C(=CC[C@@H]4[C@@]5(C)CC[C@H](O)C(C)(C)[C@@H]5CC[C@]43C)[C@@H]2C1`, the growth at 10 µM (SF-539 [1]) is reported as 106%, the inhibition of growth at 10 µM (PC-3 [2]) is reported as 23.5% and the inhibition of growth at 10 µM (BT-549) is reported as < 10%. The growth at 10 µM [3] was 102%, the inhibition of growth at 10 µM (U-251) was < 10% and the inhibition of growth at 10 µM (HOP-62) was < 10%. The inhibition of growth at 10 µM [4] was < 10%, the growth at 10 µM (PC-3 [5]) was 76.5% and the growth at 10 µM (A549 [6]) was 87.5%. The growth at 10 µM [7] was 104%, the growth at 10 µM (DU-145) was 103% and the growth at 10 µM (RPMI-8226) was 89.3%. The growth at 10 µM (SF-268) was 102%, the inhibition of growth at 10 µM (SK-MEL-2) was < 10% and the inhibition of growth at 10 µM (HT-29) was < 10%. For the same molecule, the inhibition of growth at 10 µM (SNB-75) was < 10%, the growth at 10 µM (TK-10) was 99.7% and the inhibition of growth at 10 µM (UACC-257) was < 10%. For the same molecule, the growth at 10 µM (UO-31) was 85.5%, the growth at 10 µM (SK-MEL-5 [8]) was 98.7% and the inhibition of growth at 10 µM (Malme-3M [9]) was < 10%. The growth at 10 µM (SN12C) was 89.5%, the inhibition of growth at 10 µM (SR) was 22% and the growth at 10 µM (HOP-92 [10]) was 103%. For the same molecule, the inhibition of growth at 10 µM (SNB-19) was < 10%, the inhibition of growth at 10 µM (HOP-92 [11]) was < 10% and the growth at 10 µM (MDA-MB-231 [12]) was 98.6%. The inhibition of growth at 10 µM (A549 [13]) was 12.4%, the growth at 10 µM (OVCAR-8) was 93.7% and the growth at 10 µM [14] was 104%. For the same molecule, the growth at 10 µM (SK-OV-3) was 101%, the growth at 10 µM (OVCAR-4 [15]) was 96% and the inhibition of growth at 10 µM (T47D) was < 10%. For the same molecule, the growth at 10 µM (Malme-3M [16]) was 102%, the inhibition of growth at 10 µM (K562 [17]) was < 10% and the inhibition of growth at 10 µM (SW-620 [18]) was < 10%. The inhibition of growth at 10 µM (NCI-H522) was < 10%, the growth at 10 µM (COLO 205) was 109% and the inhibition of growth at 10 µM (KM12 [19]) was < 10%. For the same molecule, the growth at 10 µM (KM12 [20]) was 90.1%, the inhibition of growth at 10 µM (OVCAR-4 [21]) was < 10% and the inhibition of growth at 10 µM (SK-MEL-5 [22]) was < 10%. The inhibition of growth at 10 µM (SF-539 [23]) was < 10%, the growth at 10 µM (IGROV-1) was 97.6% and the inhibition of growth at 10 µM (CAKI-1 [24]) was 15.2%. For the same molecule, the growth at 10 µM (CAKI-1 [25]) was 91.8%, the inhibition of growth at 10 µM (MDA-MB-231 [26]) was < 10% and the growth at 10 µM (SW-620 [27]) was 109%. For the same molecule, the inhibition of growth at 10 µM (MCF7) was < 10% and the growth at 10 µM (K562 [28]) was 94%.
